# Laboratory results taken from patent US7423017B2, “Method for treating cartilage disorders” (Genentech, Inc., priority 1997, dated 2008).
# Positions of bridges follow the written chain, without caps; N, C: chain ends. Residues, ends and D or L forms follow the SMILES beside them.
# Experiments:
# IGFBP-3 [1] = target: T1, IGFBP-3 (Homo sapiens, UniProt P17936); test: phage-ELISA competition assay of g3 peptide-phage clones; type: binding; details: g3 monovalent display
# T1 construct: made in house
# From the text: A third clone, 3Ai.2, represents a new peptide sequence that was not identified from g8 display.
# IGFBP-3 [2] = target: T1, IGFBP-3; test: IGF-1 blocking phage assay: peptide-phage binding to coated IGFBP-3 with/without IGF-1; details: 100 nM IGF-1; 50-fold dilution of phage
# Description: IGFBP-3 was coated directly onto MAXISORP198 plates as above. Phage from clonal cultures were mixed with IGF-1 (100 nM final concentration), and incubated with the immobilized IGFBP-3 for 1 hour at room temperature. The plates were then washed ten times, as above, and a solution of rabbit anti-phage antibody mixed with a goat-anti-rabbit conjugate of horseradish peroxidase was added. After an incubation of 1 hour at room temperature, the plates were developed with a chromogenic substrate, o-phenylenediamine (Sigma). The reaction was stopped with addition of ½ volume of 2.5 M H2SO4. Optical density at 490 nm was measured on a spectrophotometric plate reader.
# In each case, the phagemid clone was grown from a single colony overnight at 37° C. in a culture volume of 5 ml. The phage particles were precipitated and resuspended in 0.5 ml of PBS buffer. A 50-fold dilution of each phage solution was made into PBS/TWEEN™ buffer, and the phage were incubated with or without 100 nM IGF-1 on an IGFBP-3-coated MAXISORP™ plate.
# In each case, the phagemid clone was grown from a single colony overnight at 37° C. in a culture volume of 5 ml. The phage particles were prepared as described above.
# IGFBP-1 [3] = target: T2, IGFBP-1 (Homo sapiens, UniProt P08833); test: BIAcore direct binding kinetics of peptides on immobilized IGFBP-1; set-up: made in house; host or cells: CHO cells; details: for Kd: koff/kon, BIAcore kinetics, read-out: KD ± (SD or SE)
# T2 sequence (P08833 26-259): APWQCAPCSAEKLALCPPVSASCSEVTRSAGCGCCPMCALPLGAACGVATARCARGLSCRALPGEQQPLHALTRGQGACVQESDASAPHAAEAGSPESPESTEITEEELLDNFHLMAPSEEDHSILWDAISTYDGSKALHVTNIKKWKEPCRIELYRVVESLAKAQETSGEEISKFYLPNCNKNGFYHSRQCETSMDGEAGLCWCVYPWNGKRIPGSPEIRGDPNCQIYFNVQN
# From the text: WO 98/45427 published Oct. 15, 1998 discloses the preparation and characterization of the IGFBP-1 displacer peptide BP1-01 ([…]) (SEQ ID NO:26). The kinetics of BP1-01 peptide variants were examined in a BIAcore™ (BIAcore, Inc., Piscataway, N.J.) assay using IGFBP-1 covalently coupled via EDC/NHS (as described by the manufacturer) to a dextran chip. […] The latter implies a half-life for peptide dissociation from IGFBP-1 of approximately 28 sec. The association rate constant is moderately fast, consistent with the notion that the peptide may not undergo significant conformation change upon binding to IGFBP-1.
# Inhibition assays for measuring relative potencies of peptides for inhibiting IGFBP-1 binding to IGF-I have been described (e.g., WO 98/45427, supra). Peptides described herein were of sufficient binding affinity to allow for direct measurement of binding affinities by surface plasmon resonance (SPR) using a BIACORE™ system. The direct binding kinetics of IGFBP-1 peptides were measured by injecting a series of 2-fold diluted peptides in running buffer (0.05% TWEEN 20™ in PBS) over a carboxy-methyl (CM) biosensor chip coupled with about 590-1000 RU of IGFBP-1 at a flow rate of 50 μl/min on a BIACORE 2000™ or BIACORE 3000™ surface-plasmon-resonance instrument. The immobilization of IGFBP-1 was performed through EDC/NHS chemistry as described by the manufacturer. Peptides were also injected through a flow cell containing IGFBP-3 as background control. Since the off-rate for most of the peptides is relatively fast (in the range of 2×10^−2 s^−1), off-rate measurement was set for 30 minutes. This allowed for regeneration of IGFBP-1 on the chip by simple dissociation, rather than by addition of eluent. For each dilution of peptides, a global fit of the sensorgram data was performed using a 1:1 Langmuir binding model.
# IGFBP-1 [4] = target: T2, IGFBP-1; test: KIRA cell-based assay of IGF-like activity displaced by peptides from IGF-1/IGFBP-1; details: 2 nM IGF-1, […] IGFBP-1
# Description: A cell-based (KIRA) assay was previously described for measuring the amount of IGF-like activity displaced by peptides from mixtures of IGF-1 and binding proteins (Lowman et al., supra, 1998; WO 98/45427, supra). The KIRA assay was used to compare in vitro bioactivity of BP1-16, BP1-02, BP1-25, and BP1-40. […] IGF-1 and peptide were mixed and added to cells expressing IGF receptor for 30 min, then IGFBP-1 was added for an additional 1 h.
# IGFBP-1 [5] = target: T2, IGFBP-1; test: radiolabeled IGF-1 plate assay, IGFBP-1 plate; type: binding; set-up: made in house; host or cells: CHO cells
# Description: (§1) As an additional assay of peptide activity, several peptides were tested in an assay using ^125I-labeled IGF-1 to measure inhibition of IGFBP binding, as described above (Assay 3). Serial dilutions of peptide were added to an IGFBP-1 or an IGFBP-3 plate. Thereafter, ^125I-labeled IGF-1 was added and the plates were incubated for 2 hours. The plates were then washed and counted to determine the amount of bound IGF-1.
# IGFBP-3 [6] = target: T1, IGFBP-3; test: radiolabeled IGF-1 plate assay, IGFBP-3 plate; type: binding
# Description: as §1
# IGFBP-3 [7] = target: T1, IGFBP-3; test: BIACORE competition assay: IGFBP-3 binding to immobilized IGF-1
# Description: IGF-1 was immobilized on a dextran chip for inhibition assays using a BIACORE™ 2000 surface-plasmon-resonance device (BIAcore, Inc., Piscataway, N.J.) to measure free binding protein. IGF-1 was biotinylated as described above, and injected over a chip to which streptavidin had been coupled (BIAcore, Inc.) to give 400 to 800 RU (response units) of immobilized IGF-1. […] Serial dilutions of peptide were mixed with a constant concentration (40 nM) of IGFBP-3. After incubation for >1 hour at room temperature, an aliquot of 20 μL was injected at a flow rate of 20 μL/min over the IGF-1 chip. Following the injection, a response reading was taken to measure the relative amount of IGFBP-3 bound to the IGF-1.
# T1 sequence (P17936 28-291): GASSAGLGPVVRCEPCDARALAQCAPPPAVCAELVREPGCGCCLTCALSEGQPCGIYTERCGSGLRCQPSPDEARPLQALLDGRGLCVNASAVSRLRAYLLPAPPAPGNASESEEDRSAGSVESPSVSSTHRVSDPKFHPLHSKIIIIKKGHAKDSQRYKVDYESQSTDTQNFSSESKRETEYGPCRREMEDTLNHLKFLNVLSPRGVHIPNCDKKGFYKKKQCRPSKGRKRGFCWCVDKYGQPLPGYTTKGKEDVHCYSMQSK
Compound,inhibited for binding to IGFBP-3 (phage clone with vs without IGF-1) (IGFBP-3 [2]),Kd (IGFBP-1 [3]) [nM],EC20 (concentration at which 20% of maximal IGF-1 activity is observed) (IGFBP-1 [4]) [nM],also measured
VAWEVCWDRHDQGYICTTDS [g3-4D3.11],,,,apparent affinity in phage-ELISA competition assays (IGFBP-3 [1]): < 100 nM
VAWEVCWDRHDQGYICTTDS [4D3.11],5%,,,
CC(C)C[C@@H]1NC(=O)[C@H](Cc2c[nH]c3ccccc23)NC(=O)[C@H](CCC(N)=O)NC(=O)[C@H](CC(C)C)NC(=O)[C@@H]2CCCN2C(=O)CNC(=O)[C@H](C)NC(=O)[C@H](CCCNC(=N)N)NC(=O)[C@@H](NC(=O)[C@@H](NC(=O)[C@H](CCCNC(=N)N)NC(=O)[C@H](C)NC(=O)[C@@H](N)CCC(=O)O)C(C)C)CSSC[C@@H](C(=O)N[C@@H](CCC(=O)O)C(=O)N[C@@H](CCCCN)C(=O)N[C@@H](Cc2ccc(O)cc2)C(=O)N[C@@H](Cc2ccccc2)C(=O)N[C@@H](CO)C(=O)N[C@H](C(=O)N[C@@H](Cc2ccc(O)cc2)C(=O)O)[C@@H](C)O)NC1=O [BP1-25] (H-EARVCRAGPLQWLCEKYFSTY-OH; disulfide 5-14; N-terminus and C-terminus assumed),,42 ± 11,10 to 20,
EESECFEGPGYVICGLVG [g3-4B3.3],,,,apparent affinity in phage-ELISA competition assays (IGFBP-3 [1]): < 100 nM
SGGAIYMPVEQFIAFMAVGK [23A3.5],about 20%,,,
SGGAIYWPVEQFIAFMAVGK [23A3.3],about 20%,,,
CC(C)C[C@@H]1NC(=O)[C@H](Cc2c[nH]c3ccccc23)NC(=O)[C@H](CCC(N)=O)NC(=O)[C@H](CC(C)C)NC(=O)[C@@H]2CCCN2C(=O)CNC(=O)[C@H](C)NC(=O)[C@H](CCCNC(=N)N)NC(=O)[C@@H](NC(=O)CNC(=O)[C@@H](NC(=O)[C@H](CCC(=O)O)NC(=O)[C@@H](N)CO)C(C)C)CSSC[C@@H](C(=O)N[C@@H](CCC(=O)O)C(=O)N[C@@H](CCCCN)C(=O)N[C@@H](Cc2ccc(O)cc2)C(=O)N[C@@H](Cc2ccccc2)C(=O)NCC(=O)O)NC1=O [BP1-02] (H-SEVGCRAGPLQWLCEKYFG-OH; disulfide 5-14; N-terminus and C-terminus assumed),,210 ± 46,150 to 200,"half-life for peptide dissociation from IGFBP-1 (IGFBP-1 [3]): approximately 28 sec; kon (IGFBP-1 [3]; peptide on immobilized IGFBP-1, read-out: association rate constant): 230000 M⁻¹ s⁻¹"
CC(C)C[C@@H]1NC(=O)[C@H](Cc2c[nH]c3ccccc23)NC(=O)[C@H](CCC(N)=O)NC(=O)[C@H](CC(C)C)NC(=O)[C@@H]2CCCN2C(=O)CNC(=O)[C@H](C)NC(=O)[C@H](CCCNC(=N)N)NC(=O)[C@@H](NC(=O)[C@H](CO)NC(=O)[C@H](CCC(N)=O)NC(=O)[C@H](CCC(N)=O)NC(=O)CN)CSSC[C@@H](C(=O)N[C@@H](CCC(=O)O)C(=O)N[C@@H](CCCCN)C(=O)N[C@@H](Cc2ccc(O)cc2)C(=O)N[C@@H](Cc2ccccc2)C(=O)N[C@@H](CO)C(=O)N[C@H](C(=O)N[C@@H](Cc2ccc(O)cc2)C(=O)O)[C@@H](C)O)NC1=O [BP1-40] (H-GQQSCRAGPLQWLCEKYFSTY-OH; disulfide 5-14; N-terminus and C-terminus assumed),,27 ± 21,10 to 20,
CSCC[C@H](NC(=O)[C@H](CC(N)=O)NC(=O)[C@@H]1CSSC[C@H](NC(=O)[C@@H](NC(=O)[C@H](CCC(=O)O)NC(=O)[C@H](CCC(=O)O)NC(=O)[C@@H](N)CO)C(C)C)C(=O)N[C@@H](Cc2c[nH]c3ccccc23)C(=O)N2CCC[C@H]2C(=O)N[C@@H](C(C)C)C(=O)N[C@@H](C)C(=O)N[C@@H](CCC(=O)O)C(=O)N[C@@H](Cc2c[nH]c3ccccc23)C(=O)N[C@@H](Cc2ccc(O)cc2)C(=O)N[C@@H](CC(C)C)C(=O)N1)C(=O)N[C@@H](Cc1c[nH]c2ccccc12)C(=O)NCC(=O)O [BP3-01-ox] (H-SEEVCWPVAEWYLCNMWG-OH; disulfide 5-14; N-terminus and C-terminus assumed),,,,inhibition of 125I-IGF-1 binding to an IGFBP-1 coated plate (IGFBP-1 [5]): did not inhibit IGF-1 binding to an IGFBP-1 coated plate; inhibition of 125I-IGF-1 binding to an IGFBP-3 plate (IGFBP-3 [6]): inhibition; IC50 (IGFBP-3 [7]): 2000 nM
CSCC[C@@H]1NC(=O)[C@H](Cc2c[nH]c3ccccc23)NC(=O)[C@@H]2CCCN2C(=O)CNC(=O)[C@H](CC(=O)O)NC(=O)[C@H](C)NC(=O)[C@@H](NC(=O)[C@@H](NC(=O)CNC(=O)[C@H](CCSC)NC(=O)[C@@H](N)CC(=O)O)C(C)C)CSSC[C@@H](C(=O)N[C@@H](CCC(=O)O)C(=O)N[C@@H](Cc2c[nH]c3ccccc23)C(=O)N[C@H](C(=O)N[C@@H](CCC(=O)O)C(=O)O)[C@@H](C)O)NC(=O)[C@H](C(C)C)NC(=O)[C@H](Cc2ccc(O)cc2)NC1=O [BP3-02-ox] (H-DMGVCADGPWMYVCEWTE-OH; disulfide 5-14; N-terminus and C-terminus assumed),,,,inhibition of 125I-IGF-1 binding to an IGFBP-1 coated plate (IGFBP-1 [5]): did not inhibit IGF-1 binding to an IGFBP-1 coated plate; inhibition of 125I-IGF-1 binding to an IGFBP-3 plate (IGFBP-3 [6]): inhibition
